Source: patent publication US7569213B2, “Immunotherapeutic agent” (Stanford Rook Limited, priority 2004, dated 2009)
“Also recorded” adds a separate entry of the source.

System: allergen challenged allergic mice
Test: Allergic pulmonary inflammation model (ovalbumin/alum sensitized mice, intratracheal ovalbumin challenge, BAL fluid analysis)
Assay type: in vivo, Balb/c female mice
Settings: for total cellular infiltrate (cells recovered in the bronchoalveolar lavage fluid) / neutrophils and monocytes/macrophages at the site of inflammation (BAL fluid) / number of eosinophils recovered in the BAL fluid / IL-5 levels in the BAL fluid / IL-10 levels in the BAL fluid: ovalbumin/alum sensitized mice; for total cellular infiltrate (cells recovered in the bronchoalveolar lavage fluid): intratracheal ovalbumin challenge, compared to buffer-treated mice; for neutrophils and monocytes/macrophages at the site of inflammation (BAL fluid) / number of eosinophils recovered in the BAL fluid / IL-5 levels in the BAL fluid / IL-10 levels in the BAL fluid: ovalbumin challenge; for IL-5 levels in the BAL fluid / IL-10 levels in the BAL fluid: ELISA
Excerpt: This model is used below to evaluate the effect of the compounds of the invention and to carry out comparative tests.
The prevention protocol is designed to determine the ability of treatment to prevent the development of symptoms of allergic pulmonary inflammation in subsequently sensitized mice. The therapeutic protocol is designed to determine the ability of treatment to cure symptoms of allergic pulmonary inflammation in sensitized mice.
In the prevention protocol Balb/c female mice (7-8 weeks of age, 17-20 g in weight) are treated with saline or buffer—0.001% FFA albumin in saline (as positive control) or lipid fractions of mycobacteria (taken form the sample deposited at the National Collection of Type Cultures under deposit number NCTC 11659). Three weeks after treatment all mice are sensitized intraperitoneally with 10 μg ovalbumin (OVA) and Alum (a 100 μl preparation of Alum supplied by Serva-Alu-Gel-S suspension). Sensitization is repeated after twelve days. On day 19, mice are intratracheally challenged with OVA (0.5 μg in 50 μl saline). Intratracheal antigenic challenge is repeated two days later. Twenty-four or 48 hours after the last challenge, the experiment is terminated.
In the therapeutic protocol mice are sensitized with OVA and Alum on day 0 and 12. On day 21, mice are treated as appropriate. Mice are resensitized on days 42 and 54. On days 61 and 63, mice are challenged intratracheally with OVA and the experiment terminated 24 or 48 hours later.
In some experiments, a small number of mice from the positive control group are challenged intratracheally with saline alone to determine the background level of cells infiltrating the lungs of sensitized mice in the absence of an allergic episode (negative control).
A number of end points are routinely assessed. Mice are bled by cardiac puncture and blood collected for serum analysis. The lungs are lavaged three times with 0.3 ml of sterile RPMI containing Penicillin/Streptomycin. The lavage fluid is collected and recovered cells are counted. Fifty or 100 μl of lavage fluid is used for a cytospin, which is stained (Wright-Giemsa stain), fixed in methanol and used for the morphological identification of specific cell populations of interest (eosinophils, neutrophils and monocytes/macrophages). The remaining fluid is spun down and the supernatant stored for cytokine measurement by ELISA. Spleens are pooled per treatment groups, a single cell suspension of splenocytes is obtained and placed in culture with OVA for specific antigenic stimulation and with anti-CD3 for polyclonal T cell stimulation. Supernatants are collected and stored for cytokine measurement by ELISA.

Compound	total cellular infiltrate (cells recovered in the bronchoalveolar lavage fluid)	neutrophils and monocytes/macrophages at the site of inflammation (BAL fluid)	number of eosinophils recovered in the BAL fluid	IL-5 levels in the BAL fluid	IL-10 levels in the BAL fluid	total cellular infiltrate in the lungs (single dose as low as 1 μg (doses tested 5 μg, 1 μg, 0.1 μg))
CCCCC/C=C\CCCCCCCCC(=O)OCC(COC(=O)CCCCCCCC/C=C\CCCCC)OC(=O)CCCCCCCC/C=C\CCCCC [SRP312t, tri-ester of 1,2,3-propanetriol and hexadecenoic acid (10Z)]	reduced the total cellular infiltrate; also recorded: greater reduction	did not result in neutrophilia or in an increase of monocytes or macrophages	significant reduction	reduced	increased	significantly reduce
CCCCC=CCCCCCCCCCC(=O)OCC(COC(=O)CCCCCCCCCC=CCCCC)OC(=O)CCCCCCCCCC=CCCCC (stereo not drawn) [C16:1 11-12]	failed to reduce					
CCCCC/C=C\CCCCCCCCC(=O)O [SRP312f, hexadecenoic acid (10Z)]		did not result in neutrophilia or in an increase of monocytes or macrophages	significant reduction	reduced	increased	
CCCCC/C=C/CCCCCCCCC(=O)O [C16:1 10-11 trans]	reduction in the cellular infiltrate					
